Measurements: patent publication US6479466B1, “Compositions for treating viral infections, and methods therefor” (University of Maryland, priority 1999, dated 2002)
Counter-ions that a name gives are not always drawn. Like-named read-outs stand apart in the source and are kept apart here.

Experiments:
HTLV-IIIB [1] = experiment: p24 antigen production in PHA-activated PBMCs infected with HTLV-IIIB; type: cell-based, HIV-1; conditions: for IC90: read-out: IC90 (concentration of nucleoside analog that reduced the p24 antigen value of the untreated control by 90%)
Text: The antiviral activities of RV alone and in combination with nucleoside analogs were investigated in PHA-stimulated PBMCs from seronegative donors. RV, ddC, ddI, and AZT were purchased from Sigma (St. Louis, Mo.). The HIV-1 T-cell line adapted isolate HTLV-IIIB was obtained from Dr. Gallo, at the National Institutes of Health AIDS Research and Reference Reagent Program (Catalog #398, Rockville, Md.). Primary strains of HIV-1 were isolated by coculturing 10^7 patient PBMC with an equal number of PHA-stimulated PBMC from a normal donor. Titration of stocks and MT-2 phenotype determination were carried out as described (ACTG Virology Manual, NIH Pub No. 94 3828, 1994). The SI phenotype was determined by assessing viral growth and syncytia formation in the MT-2 cell line obtained from Dr. Richman at the National Institutes of Health AIDS Research and Reference Reagent Program (Catalog #237, Rockville, Md.).
Primary PBMCs were separated from whole blood of HIV seronegative donors by density centrifugation over Ficoll-Hypaque (Sigma). The culture medium consisted of RPMI supplemented with 10% fetal bovine serum (FBS), 2 mM glutamine and penicillin/streptomycin (Gibco, Grand Island, N.Y.).
For infection studies involving PBMCs, cells were stimulated with 2.5 or 10 μg/ml phytohemagglutinin (PHA; Boehringer Mannheim, Indianapolis, Ind.) for 3 days. Stimulated PBMCs were infected by incubation with virus at a multiplicity of infection of 1000 TCID50/10^6 PBMC for 2 hours. PBMCs were then washed three times with PBS and cultured in 5% CO2 at 37° C., in RPMI/10% FBS supplemented with 10 units/ml IL-2 (Boehringer Mannheim) and drugs as appropriate. PBMCs were seeded in 96-well flat-bottom plates at a density of 2×10^5 PBMCs/200 μl. Following 3 days of culture half of the medium was replaced with fresh medium containing IL-2 and drugs. After 7 days of culture, HIV-1 p24 antigen production in the culture supernatant was assayed by ELISA (Coulter, Hialeah, Fla.). The concentration of nucleoside analog, alone and in combination with resveratrol, that reduced the p24 antigen value of the untreated control by 90% (IC90) was calculated by using nonparametric regression analysis. The analysis used the median-effect equation, Fa=1/[1+(Dm/D)]^m, where D is the dose, Fa is the fraction affected, and Dm is the dose required to produce the median effect.
Cells were infected with the T-cell tropic isolate HTLV-IIIB for 2 hours, and then cultured in varying concentrations of RV with or without nucleoside analogs. Virus replication was measured by p24 antigen production by ELISA using a standard commercial kit in the culture supernatants on days 7 and 10 after infection.
Activated PBMCs infected with HTLV-IIIB were cultured in the presence of ddI plus HU (100 μM) or RV (5 and 10 μM). […] Virus production in the presence of the different drug concentrations was evaluated on day 7 after infection.

HTLV-IIIB [2] = experiment: p24 antigen in infected resting T-lymphocytes exposed to drugs for 6 days before PHA activation; type: cell-based, HIV-1; conditions: ddC 0.1 μM or AZT 4 μM in combination with RV
Procedure: The effect of RV and nucleoside analogues in infected resting T-lymphocytes was evaluated in the present example. Purified resting cells were used. Absence of activated lymphocytes in the preparation was determined by incubation of the cells in the presence of a monoclonal antibody directed against the low affinity IL-2 receptor CD25 (Pharmingen, San Diego, Calif.), and subsequent analysis by flow cytometry. […] Cells were infected with HTLV-IIIB at a multiplicity of infection of 10^4 TCID50/10^6 cells for 3 hours. A high multiplicity of infection (m.o.i.) was used because of a reported short half life of HIV-1 unintegrated DNA in infected resting lymphocytes. Infected cells were washed 3 times with PBS to remove virus excess and resuspended in 10% FBS RPMI medium supplemented with drugs. To ensure that any antiviral activity exerted by the drugs occurred during the resting state, drugs were removed six days after infection by washing with PBS 3 times, and cells were activated by culturing in the presence of PHA for 2 days. Cells were then cultured in IL-2 medium without drugs, and supernatants were monitored for the presence of p24 antigen. Cultures were maintained for 20 days.
Purified resting T-lymphocytes from a seronegative donor were infected with HTLV-IIIB at the high multiplicity of infection and cultured in the presence of 5 or 10 μM RV plus ddI (0, 0.25, 0.5 μM), ddC (0, 0.1 μM) or AZT (0, 4 μM) for 6 days. Concentrations used for ddC and AZT correspond to the highest, nontoxic concentration attainable in plasma of treated individuals. […] On day 6 after infection, drugs were washed away and cells were activated with PHA. The extent of viral replication was evaluated on day 6 (prior to PHA activation) and days 14 and 20 after infection. On day 6 very low amounts of p24 antigen could be detected under every condition tested, likely representing residual virus from the infecting inoculum. […] No toxicity was found by the MTT assay in uninfected culture controls treated with 5 μM RV and 0.5 μM ddI for 20 days under the same conditions.

PHA-stimulated PBMCs = experiment: MTT cell proliferation assay in PHA-stimulated PBMCs; type: cell-based, human; conditions: human, 5 days, 100 μM
Procedure: The effect of RV and […] on PBMC proliferation at the concentrations shown to enhance the anti-HIV effect of ddI were examined. Cellular proliferation in culture in the presence or absence of drugs was measured by commercial MTT assay, according to the manufacturer's instructions (Boehringer Mannheim). Cell viability was determined by trypan blue staining.
Proliferation was measured on PHA-stimulated PBMCs cultured in the presence of IL-2, 2 μM ddI, and RV or HU. The MTT assay was performed on days 2 and 5 (FIG. 8), and days 2 and 7 (FIG. 20) after the addition of the drugs. […] On day 5, RV at 10 μM inhibited proliferation by 30%, whereas HU inhibited proliferation by 40 to 50%, depending on the donor.
Proliferating PBMCs were cultured in the presence of RV or HU for 5 days. On day 2 and 5 an MTT assay and a ^3H-thymidine incorporation assay were performed. The MTT is a […] assay that measures cellular metabolic activity and directly correlates to the number of cells in the culture. The ^3H-thymidine incorporation assay relies on the incorporation of the radioactive nucleoside ^3H-thymidine into newly synthesized DNA. […] These differences between the effects of RV and HU were even more striking in the MTT and ^3H-thymidine incorporation assays conducted on day 5 (FIG. 12 and FIG. 13, respectively).

PHA-activated PBMCs = experiment: 3H-thymidine incorporation (DNA synthesis) assay in proliferating PBMCs; type: cell-based, human; conditions: HU 100 μM; day 2
Procedure: For example, a thymidine incorporation assay using PBMC's may be carried out as follows. PBMC's are suspended, then 0.1 ml (100,000) of cells are added to each designated well of a 96-well plate. The plates are placed into a 37° C., 5% CO2, 95% humid incubator for the predetermined incubation periods—normally 2 and 5 days. At the end of the incubation period, and at a standard time prior to harvesting the plate (6-18 hours), 1.0-1.5 μCi (20 μl of 50-75 mCi/ml in complete medium) of [^3H]-labeled methyl thymidine is added to each well of the assay. The plates are then incubated for the remaining 6-18 hours. At the end of the [^3H]-thymidine pulse, the plates are harvested onto filter paper using a semi-automated multi-well harvester. The filter paper containing bound DNA may be dried using either ethanol or by moderate microwave heating. The filter paper samples are counted in a scintillation counter using standard procedures.

[3] = test system: mutations 65R, 74V, 184V, and 115F in the RT gene; conditions: cited from earlier work

## Cc1cn([C@H]2C[C@H](N=[N+]=[N-])[C@@H](CO)O2)c(=O)[nH]c1=O [AZT, 3′-azido-2′,3′-dideoxythymidine]
HTLV-IIIB [1]; Human immunodeficiency virus 1, IIIB, PBMC, 168 h, in combination with 5 μM RV, day 7
  IC90: 15 nM
HTLV-IIIB [1]; Human immunodeficiency virus 1, IIIB, PBMC, 168 h, nucleoside analog alone, day 7
  IC90: 25 nM
HTLV-IIIB [1]; in combination with 5 μM RV
  reduction of IC90 value: 1.6 fold
HTLV-IIIB [1]; in the presence of 10 μM RV
  reduction of IC90 value: 3.1 fold
HTLV-IIIB [2]
  virus replication after PHA activation: failed to suppress virus replication

## NC(=O)NO [HU, Hydroxyurea]
HTLV-IIIB [1]; HU 100 μM alone, day 7
  reduction of virus production: approximately 20%
HTLV-IIIB [1]; Human immunodeficiency virus 1, IIIB, PBMC, 168 h, 100 μM HU combined with 0.5 μM ddI, day 7, read-out: inhibition of virus replication
  inhibition at 100 µM: > 99%
HTLV-IIIB [1]; Human immunodeficiency virus 1, IIIB, PBMC, 168 h, 100 μM HU in combination with 0.25 μM ddI, day 7, read-out: inhibition of HIV-1 replication
  inhibition at 100 µM: 91%
PHA-stimulated PBMCs
  inhibition of proliferation: 40 to 50%
PHA-activated PBMCs
  3H-thymidine incorporation (DNA synthesis): much lower than the untreated control

## Nc1nc(NC2CC2)c2ncn([C@H]3C=C[C@@H](CO)C3)c2n1 [abacavir, (1C, CiS)-4-(2-amino-6-(cyclopropylamino)—9H-purin-9-yL)-2-cyclopentene-1-methanol sulfate (salt) (2:1)]
[3]; mutants harboring 2 or 3 of these mutations
  resistance to the drug: approximately 10 fold
[3]; single mutations 65R, 74V, 184V, and 115F
  decrease in susceptibility: 2-3 fold

## Nc1ccn([C@H]2CC[C@@H](CO)O2)c(=O)n1 [ddC, 2′,3′-dideoxycytosine]
HTLV-IIIB [1]; in combination with 5 μM RV
  reduction of IC90 value: 3.3 fold
HTLV-IIIB [1]; in combination with 5 μM RV, day 7
  IC90: 80 nM
HTLV-IIIB [1]; in the presence of 10 μM RV
  reduction of IC90 value: 5.4 fold
HTLV-IIIB [1]; nucleoside analog alone, day 7
  IC90: 270 nM
HTLV-IIIB [2]
  virus replication after PHA activation: failed to suppress virus replication
